ChEMBL document CHEMBL3734705, “Synthesis and in vitro cytotoxicity of novel C-12 substituted-14-deoxy-andrographolide derivatives as potent anti-cancer agents” (2015)

Experiments:
[1] = Cytotoxicity against human MOLT4 cells assessed as growth level at 10 uM after 48 hrs by SRB assay; format: functional, MOLT-4
[2] = Cytotoxicity against human HOP62 cells assessed as growth level at 10 uM after 48 hrs by SRB assay; format: functional, HOP-62
[3] = test system: NCI-H226; test: Cytotoxicity against human NCI-H226 cells assessed as growth level at 10 uM after 48 hrs by SRB assay; format: functional
[4] = test system: NCI-H23; test: Cytotoxicity against human NCI-H23 cells assessed as growth level at 10 uM after 48 hrs by SRB assay; format: functional
[5] = test system: NCI-H460; test: Cytotoxicity against human NCI-H460 cells assessed as growth level at 10 uM after 48 hrs by SRB assay; format: functional
[6] = Cytotoxicity against human COLO205 cells assessed as growth level at 10 uM after 48 hrs by SRB assay; format: functional, COLO 205
[7] = test system: KM12; test: Cytotoxicity against human KM12 cells assessed as growth level at 10 uM after 48 hrs by SRB assay; format: functional
[8] = Cytotoxicity against human SW620 cells assessed as growth level at 10 uM after 48 hrs by SRB assay; format: functional, SW-620
[9] = test system: SK-MEL-5; test: Cytotoxicity against human SK-MEL-5 cells assessed as growth level at 10 uM after 48 hrs by SRB assay; format: functional
[10] = Cytotoxicity against human UACC257 cells assessed as growth level at 10 uM after 48 hrs by SRB assay; format: functional, UACC-257
[11] = Cytotoxicity against human IGROV1 cells assessed as growth level at 10 uM after 48 hrs by SRB assay; format: functional, IGROV-1
[12] = Cytotoxicity against human OVCAR3 cells assessed as growth level at 10 uM after 48 hrs by SRB assay; format: functional, OVCAR-3
[13] = Cytotoxicity against human OVCAR5 cells assessed as growth level at 10 uM after 48 hrs by SRB assay; format: functional, OVCAR-5
[14] = Cytotoxicity against human OVCAR8 cells assessed as growth level at 10 uM after 48 hrs by SRB assay; format: functional, OVCAR-8
[15] = test system: 786-0; test: Cytotoxicity against human 786-0 cells assessed as growth level at 10 uM after 48 hrs by SRB assay; format: functional
[16] = test system: A498; test: Cytotoxicity against human A498 cells assessed as growth level at 10 uM after 48 hrs by SRB assay; format: functional
[17] = test system: ACHN; test: Cytotoxicity against human ACHN cells assessed as growth level at 10 uM after 48 hrs by SRB assay; format: functional
[18] = test system: SN12C; test: Cytotoxicity against human SN12C cells assessed as growth level at 10 uM after 48 hrs by SRB assay; format: functional
[19] = Cytotoxicity against human TK10 cells assessed as growth level at 10 uM after 48 hrs by SRB assay; format: functional, TK-10
[20] = Cytotoxicity against human UO31 cells assessed as growth level at 10 uM after 48 hrs by SRB assay; format: functional, UO-31
[21] = Cytotoxicity against human PC3 cells assessed as growth level at 10 uM after 48 hrs by SRB assay; format: functional, PC-3
[22] = test system: MDA-MB-231; test: Cytotoxicity against human MDA-MB-231 cells assessed as growth level at 10 uM after 48 hrs by SRB assay; format: functional
[23] = Cytotoxicity against human Hs578T cells assessed as growth level at 10 uM after 48 hrs by SRB assay; format: functional, Hs-578T
[24] = Cytotoxicity against human HL-60(TB) cells assessed as growth inhibition at 10 uM after 48 hrs by SRB assay; format: functional; conditions: HL-60, 48 h, read-out: GI
[25] = Cytotoxicity against human MOLT4 cells assessed as growth inhibition at 10 uM after 48 hrs by SRB assay; format: functional; conditions: MOLT-4, 48 h, read-out: GI
[26] = test system: SR; test: Cytotoxicity against human SR cells assessed as growth inhibition at 10 uM after 48 hrs by SRB assay; format: functional; conditions: read-out: GI
[27] = test system: A549; test: Cytotoxicity against human A549 cells assessed as growth inhibition at 10 uM after 48 hrs by SRB assay; format: functional; conditions: A549, 48 h, read-out: GI
[28] = test system: NCI-H460; test: Cytotoxicity against human NCI-H460 cells assessed as growth inhibition at 10 uM after 48 hrs by SRB assay; format: functional; conditions: NCI-H460, 48 h, read-out: GI
[29] = test system: NCI-H522; test: Cytotoxicity against human NCI-H522 cells assessed as growth inhibition at 10 uM after 48 hrs by SRB assay; format: functional; conditions: NCI-H522, 48 h, read-out: GI
[30] = Cytotoxicity against human COLO205 cells assessed as growth inhibition at 10 uM after 48 hrs by SRB assay; format: functional; conditions: COLO 205, 48 h, read-out: GI
[31] = Cytotoxicity against human SW620 cells assessed as growth inhibition at 10 uM after 48 hrs by SRB assay; format: functional; conditions: SW-620, 48 h, read-out: GI
[32] = Cytotoxicity against human SNB75 cells assessed as growth inhibition at 10 uM after 48 hrs by SRB assay; format: functional; conditions: SNB-75, 48 h, read-out: GI
[33] = test system: U-251; test: Cytotoxicity against human U251 cells assessed as growth inhibition at 10 uM after 48 hrs by SRB assay; format: functional; conditions: U-251, 48 h, read-out: GI
[34] = test system: Malme-3M; test: Cytotoxicity against human MALME-3M cells assessed as growth inhibition at 10 uM after 48 hrs by SRB assay; format: functional; conditions: read-out: GI
[35] = test system: M14; test: Cytotoxicity against human M14 cells assessed as growth inhibition at 10 uM after 48 hrs by SRB assay; format: functional; conditions: M14, 48 h, read-out: GI
[36] = test system: SK-MEL-5; test: Cytotoxicity against human SK-MEL-5 cells assessed as growth inhibition at 10 uM after 48 hrs by SRB assay; format: functional; conditions: SK-MEL-5, 48 h, read-out: GI
[37] = Cytotoxicity against human IGROV1 cells assessed as growth inhibition at 10 uM after 48 hrs by SRB assay; format: functional; conditions: IGROV-1, 48 h, read-out: GI
[38] = Cytotoxicity against human OVCAR4 cells assessed as growth inhibition at 10 uM after 48 hrs by SRB assay; format: functional; conditions: OVCAR-4, 48 h, read-out: GI
[39] = Cytotoxicity against human OVCAR8 cells assessed as growth inhibition at 10 uM after 48 hrs by SRB assay; format: functional; conditions: OVCAR-8, 48 h, read-out: GI
[40] = Cytotoxicity against human TK10 cells assessed as growth inhibition at 10 uM after 48 hrs by SRB assay; format: functional; conditions: TK-10, 48 h, read-out: GI
[41] = test system: MCF7; test: Cytotoxicity against human MCF7 cells assessed as growth inhibition at 10 uM after 48 hrs by SRB assay; format: functional; conditions: MCF7, 48 h, read-out: GI
[42] = Cytotoxicity against human Hs578T cells assessed as growth inhibition at 10 uM after 48 hrs by SRB assay; format: functional; conditions: Hs-578T, read-out: GI
[43] = test system: CCRF-CEM; test: Cytotoxicity against human CCRF-CEM cells assessed as growth level at 10 uM after 48 hrs by SRB assay; format: functional
[44] = test system: K562; test: Cytotoxicity against human K562 cells assessed as growth level at 10 uM after 48 hrs by SRB assay; format: functional

C=C1CC[C@@H]2[C@](C)(COC(C)=O)[C@H](OC(C)=O)CC[C@@]2(C)[C@@H]1CC(NC1CCCC1)C1=CCOC1=O (stereo partly drawn)
Activity [1]: 42.41% | Activity [2]: 94.41% | Activity [3]: 84.46% | Activity [4]: 62.53% | Activity [5]: 74.77% | Activity [6]: 75.23% | Activity [7]: 74.46% | Activity [8]: 67.48% | Activity [9]: 34.29% | Activity [10]: 38.37% | Activity [11]: 88.25% | Activity [12]: 68.98% | Activity [13]: 105.62% | Activity [14]: 53.68% | Activity [15]: 92.51% | Activity [16]: 68% | Activity [17]: 78.47% | Activity [18]: 78.46% | Activity [19]: 87.06% | Activity [20]: 56.08% | Activity [21]: 44.7% | Activity [22]: 80.39% | Activity [23]: 74.91% | inhibition of growth at 10 µM [24]: 57.3% | inhibition of growth at 10 µM [25]: 57.6% | inhibition of growth at 10 µM [26]: 80.4% | inhibition of growth at 10 µM [27]: 26.4% | inhibition of growth at 10 µM [28]: 25.2% | inhibition of growth at 10 µM [29]: 54.4% | inhibition of growth at 10 µM [30]: 24.8% | inhibition of growth at 10 µM [31]: 32.5% | inhibition of growth at 10 µM [32]: 32% | inhibition of growth at 10 µM [33]: 24.6% | inhibition of growth at 10 µM [34]: 15.4% | inhibition of growth at 10 µM [35]: 20.9% | inhibition of growth at 10 µM [36]: 65.7% | inhibition of growth at 10 µM [37]: 11.8% | inhibition of growth at 10 µM [38]: 41.6% | inhibition of growth at 10 µM [39]: 46.3% | inhibition of growth at 10 µM [40]: 12.9% | inhibition of growth at 10 µM [41]: 27.6% | inhibition of growth at 10 µM [42]: 25.1% | Activity [43]: 63.47% | Activity [44]: 48.3%

C=C1CC[C@@H]2[C@](C)(COC(C)=O)[C@H](OC(C)=O)CC[C@@]2(C)[C@@H]1CC(NCCCC)C1=CCOC1=O (mixture of isomers)
Activity [1]: 55.54% | Activity [2]: 93.96% | Activity [3]: 75.67% | Activity [4]: 89.71% | Activity [5]: 91.62% | Activity [6]: 82.08% | Activity [7]: 92.79% | Activity [8]: 95.01% | Activity [9]: 76.02% | Activity [10]: 85.16% | Activity [11]: 80.01% | Activity [12]: 91.12% | Activity [13]: 95.04% | Activity [14]: 89.63% | Activity [15]: 96.07% | Activity [16]: 75.44% | Activity [17]: 99.42% | Activity [18]: 89.83% | Activity [19]: 99.06% | Activity [20]: 84% | Activity [21]: 51.19% | Activity [22]: 79.12% | Activity [23]: 97.68% | inhibition of growth at 10 µM [24]: 6.18% | inhibition of growth at 10 µM [25]: 44.5% | inhibition of growth at 10 µM [26]: 51.5% | inhibition of growth at 10 µM [27]: 18.8% | inhibition of growth at 10 µM [28]: 8.38% | inhibition of growth at 10 µM [29]: 20.9% | inhibition of growth at 10 µM [30]: 17.9% | inhibition of growth at 10 µM [31]: 4.99% | inhibition of growth at 10 µM [32]: 22.1% | inhibition of growth at 10 µM [33]: 13.2% | inhibition of growth at 10 µM [34]: 2.43% | inhibition of growth at 10 µM [35]: 7.25% | inhibition of growth at 10 µM [36]: 24% | inhibition of growth at 10 µM [37]: 20% | inhibition of growth at 10 µM [38]: 14.3% | inhibition of growth at 10 µM [39]: 10.4% | inhibition of growth at 10 µM [40]: 0.94% | inhibition of growth at 10 µM [41]: 17.1% | inhibition of growth at 10 µM [42]: 2.32% | Activity [43]: 80.69% | Activity [44]: 69.53%
